# Results taken from US10640495B2, “Heterocycle derivatives having TrkA inhibitory activity” (Shionogi & Co., Ltd., priority 2015, dated 2020).
# Biological target: human TrkA (Homo sapiens (Human), UniProt P04629)
# Assay: Human TrkA inhibition assay (Test Example 2)
# Type: biochemical
# Details: Table 152, human TrkA inhibition; read-out: IC50_nM
# In short: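 Mobility-shift readout of phosphorylated versus unphosphorylated fluorescent peptide gave conversion ratio, normalized to DMSO and no-enzyme wells; IC50 by logistic fit of 10- or 15-point 3-fold dilutions. Conditions: 1 nmol/L enzyme, 15 min compound preincubation, then 500 μmol/L ATP plus 1.5 μmol/L peptide, 120 min, 37 °C.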
# Sequence of human TrkA (P04629 440-796): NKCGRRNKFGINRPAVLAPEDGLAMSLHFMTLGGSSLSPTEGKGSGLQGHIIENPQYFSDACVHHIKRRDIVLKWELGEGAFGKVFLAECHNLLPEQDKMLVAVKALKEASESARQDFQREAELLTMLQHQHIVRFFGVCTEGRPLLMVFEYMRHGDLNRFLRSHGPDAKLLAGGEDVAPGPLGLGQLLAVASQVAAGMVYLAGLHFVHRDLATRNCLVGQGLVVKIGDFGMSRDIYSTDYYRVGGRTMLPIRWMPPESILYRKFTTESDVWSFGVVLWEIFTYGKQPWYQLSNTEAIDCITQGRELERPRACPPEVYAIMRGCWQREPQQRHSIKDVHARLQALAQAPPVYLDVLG
row,IC50 [nM],Structure (SMILES)
1,< 100,COCCC1C[C@@H](NC(=O)Nc2c(C)c(C3=CCN(C(=O)OC(C)(C)C)CC3)nn2-c2ccccc2)[C@H](c2ccccc2)O1 (stereo partly shown) [Compound I-20]
2,< 100,COCC[C@@H]1C[C@@H](NC(=O)Nc2c(C)c(-c3cnn(C)c3)nn2-c2ccccc2)[C@H](c2ccc(F)c(F)c2)O1 (racemic) [Compound I-23]
3,< 100,COCCC1C[C@@H](NC(=O)Nc2c(C)c(-c3ccc(OCc4ccccc4)nc3)nn2-c2ccccc2)[C@H](c2ccccc2)O1 (stereo partly shown) [Compound I-14]
4,< 100,COCCN1C[C@@H](NC(=O)Nc2c(C)c(-c3cnn(C)c3)nn2-c2ccccc2)[C@H](c2ccc(F)c(F)c2)O1 (racemic) [Compound I-8]

# Same assay, conditions: Table 153, human TrkA inhibition; read-out: IC50
row,IC50 [nM],Structure (SMILES)
1,< 100,COCCN1C[C@@H](NC(=O)Nc2c(C)c(-c3cnn(C)c3)nn2-c2ccccc2)[C@H](c2ccc(F)cc2)O1 (racemic) [Compound I-116]
2,< 100,COCC[C@@H]1C[C@@H](NC(=O)Nc2c(C)c(C3=CCNCC3)nn2-c2ccccc2)[C@H](c2ccc(F)c(F)c2)O1 (racemic) [Compound I-55]
3,< 100,COCCN1C[C@@H](NC(=O)Nc2c(C)c(-c3cnc(OC)c(C(N)=O)c3)nn2-c2ccccc2)[C@H](c2cnc(OC)c(F)c2)O1 (racemic) [Compound I-102]
4,< 100,COCCN1C[C@@H](NC(=O)Nc2c(C)c(-c3cnc4c(c3)nnn4C)nn2-c2ccccc2)[C@H](c2ccc(F)cc2)O1 (racemic) [Compound I-118]
5,< 100,CNC(=O)c1cc(-c2nn(-c3ccccc3)c(NC(=O)N[C@@H]3CN(Cc4csnn4)O[C@H]3c3ccc(F)c(F)c3)c2C)cn(C)c1=O (racemic) [Compound I-151]
6,< 100,COCCN1C[C@@H](NC(=O)Nc2c(C)c(C3=CCN(c4ncc(Cl)cn4)CC3)nn2-c2ccccc2)[C@H](c2ccc(F)c(F)c2)O1 (racemic) [Compound I-153]
7,< 100,CNC(=O)c1cc(-c2nn(-c3ccccc3)c(NC(=O)N[C@@H]3CN(CCOC)O[C@H]3c3cnc(F)c(F)c3)c2C)cn(C)c1=O (racemic) [Compound I-75]
8,< 100,COCCN1C[C@@H](NC(=O)Nc2c(C)c(-c3ccn4c(C)nnc4c3)nn2-c2ccccc2)[C@H](c2ccnc(F)c2)O1 (racemic) [Compound I-155]

# Same assay, conditions: Table 154, human TrkA inhibition; read-out: IC50
row,IC50 [nM],Structure (SMILES)
1,< 100,COCCN1C[C@@H](NC(=O)Nc2c(C)c(-c3cnc4c(cnn4C)c3)nn2-c2ccc(F)cc2)[C@H](c2ccnc(F)c2)O1 (racemic) [Compound I-223]
2,< 100,COCCN1C[C@@H](NC(=O)Nc2c(C)c(-c3ccnc(C(=O)O)c3)nn2-c2ccccc2)[C@H](c2ccnc(F)c2)O1 (racemic) [Compound I-212]
3,< 100,COCCN1C[C@@H](NC(=O)Nc2c(C)c(-c3cnc(C(N)=O)c(F)c3)nn2-c2ccccc2)[C@H](c2ccc(F)c(F)c2)O1 [Compound I-312]
4,< 100,COCC[C@@H]1C[C@@H](NC(=O)Nc2c(C)c(-c3cnc(Cl)nc3)nn2-c2ccccc2)[C@H](c2ccnc(F)c2)O1 [Compound I-248]
5,< 100,COCC[C@@H]1C[C@@H](NC(=O)Nc2c(C)c(-c3cnc(N(C(=O)OC(C)(C)C)C4CC4)nc3)nn2-c2ccccc2)[C@H](c2ccnc(F)c2)O1 [Compound I-290]
6,100 to 1000,Cc1c(-c2cnc3c(cnn3C)c2)nn(-c2ccccc2)c1NC(=O)N[C@@H]1CN(CC2COC2)O[C@H]1c1ccc(F)c(F)c1 (racemic) [Compound I-202]
7,< 100,CNC(=O)c1cc(-c2nn(-c3ccccc3)c(NC(=O)N[C@@H]3C[C@@H](CCOC)O[C@H]3c3ccnc(F)c3)c2C)cn(C)c1=O [Compound I-271]
8,< 100,COCCN1C[C@@H](NC(=O)Nc2c(C)c(-c3ccnc(C(=O)NO)c3)nn2-c2ccccc2)[C@H](c2ccc(F)c(F)c2)O1 (racemic) [Compound I-195]

# Same assay, conditions: Table 155, human TrkA inhibition; read-out: IC50
row,IC50 [nM],Structure (SMILES)
1,< 100,COCCN1C[C@@H](NC(=O)Nc2c(C)c(-c3cnc(COC)nc3)nn2-c2ccccc2)[C@H](c2cnc(F)c(F)c2)O1 [Compound I-512]
2,< 100,COCCN1C[C@@H](NC(=O)Nc2c(C)c(N3CC(c4ccc(F)cc4)C3)nn2-c2ccccc2)[C@H](c2ccnc(F)c2)O1 (racemic) [Compound I-335]
3,< 100,CNC(=O)c1ccc(-c2nn(-c3ccccc3)c(NC(=O)N[C@@H]3CN(CCOC)O[C@H]3c3cnc(F)c(F)c3)c2C)cn1 (racemic) [Compound I-453]
4,< 100,COCCN1C[C@@H](NC(=O)Nc2c(C)c(-c3cnc(OC(C)C)nc3)nn2-c2ccccc2)[C@H](c2ccnc(F)c2)O1 (racemic) [Compound I-477]
5,< 100,COCCN1C[C@@H](NC(=O)Nc2c(C)c(-c3cnc(N4CCN(C(=O)OCc5ccccc5)CC4)nc3)nn2-c2ccccc2)[C@H](c2ccnc(F)c2)O1 (racemic) [Compound I-371]
6,< 100,COCCN1C[C@@H](NC(=O)Nc2c(C)c(-c3cnc(C4=CCN(C)CC4)nc3)nn2-c2ccccc2)[C@H](c2ccnc(F)c2)O1 (racemic) [Compound I-445]
7,> 1000,COCCN1C[C@@H](NC(=O)Nc2c(C)c(-c3cnn(C)c3)nn2Cc2ccccc2)[C@H](c2ccc(F)c(F)c2)O1 [Compound I-492]
8,< 100,COCCN1C[C@@H](NC(=O)Nc2c(C)c(-c3cnc4c(cnn4C)c3)nn2-c2ccccc2)[C@H](c2ccc(F)c(F)c2)O1 [Compound I-473]
9,< 100,COCCN1C[C@@H](NC(=O)Nc2c(C)c(-c3cnc(OC)c(C4(O)CC4)c3)nn2-c2ccccc2)[C@H](c2ccnc(F)c2)O1 (racemic) [Compound I-355]
10,< 100,COCCN1C[C@@H](NC(=O)Nc2c(C)c(-c3cnc(OC)c(OC)c3)nn2-c2ccccc2)[C@H](c2ccnc(F)c2)O1 (racemic) [Compound I-366]
11,< 100,COCCN1C[C@@H](NC(=O)Nc2c(C)c(-c3cnc4c(c3)CN(C)CC4)nn2-c2ccccc2)[C@H](c2ccnc(F)c2)O1 (racemic) [Compound I-440]
12,< 100,COCCN1C[C@@H](NC(=O)Nc2c(C)c(-c3cnc4c(c3)c(CN3CCC(F)(F)C3)nn4C)nn2-c2ccccc2)[C@H](c2ccnc(F)c2)O1 (racemic) [Compound I-423]
13,< 100,COCCN1C[C@@H](NC(=O)Nc2c(C)c(-c3ccn(C)c(=O)c3)nn2-c2ccccc2)[C@H](c2ccc(F)c(F)c2)O1 [Compound I-497]
14,< 100,COCCN1C[C@@H](NC(=O)Nc2c(C)c(-c3cnc4c(c3)N(C)CCO4)nn2-c2ccccc2)[C@H](c2ccnc(F)c2)O1 (racemic) [Compound I-340]
15,< 100,COCCN1C[C@@H](NC(=O)Nc2c(C)c(-c3ccc(C)nc3F)nn2-c2ccccc2)[C@H](c2ccnc(F)c2)O1 (racemic) [Compound I-350]
16,< 100,COCCN1C[C@@H](NC(=O)Nc2c(C)c(-c3cnn(C)c3)nn2-c2ccccn2)[C@H](c2ccc(F)c(F)c2)O1 [Compound I-447]
17,< 100,COCCN1C[C@@H](NC(=O)Nc2c(C)c(-c3cnc(N4CC5(COC5)C4)nc3)nn2-c2ccccc2)[C@H](c2cnc(F)c(F)c2)O1 [Compound I-430]

# Same assay, conditions: Table 156, human TrkA inhibition; read-out: IC50
row,IC50 [nM],Structure (SMILES)
1,< 100,COCCN1C[C@@H](NC(=O)Nc2c(C)c(OCC3CN(C)CCO3)nn2-c2ccccc2)[C@H](c2ccc(F)c(F)c2)O1 (stereo partly shown) [Compound I-580]
2,< 100,Cc1c(OCC2CCNCC2)nn(-c2ccccc2)c1NC(=O)N[C@@H]1CN(CC(F)F)O[C@H]1c1ccc(F)c(F)c1 (racemic) [Compound I-561]
3,< 100,CNC(=O)c1cc(-c2nn(-c3ccccc3)c(NC(=O)N[C@@H]3CN(CCF)O[C@H]3c3ccc(F)c(F)c3)c2C)cnc1OC (racemic) [Compound I-550]
4,< 100,"COCCN1C[C@@H](NC(=O)Nc2c(C)c(OCC3CN(C)CCO3)nn2-c2ccccc2)[C@H](c2ccc(F)c(F)c2)O1 (single isomer, unassigned) [Compound I-579]"

# Same assay, conditions: Table 157, human TrkA inhibition; read-out: IC50
row,IC50 [nM],Structure (SMILES)
1,< 100,CCN1C[C@@H](NC(=O)Nc2c(C)c(OCCCC(N)=O)nn2-c2ccccc2)[C@H](c2ccc(F)c(F)c2)O1 (racemic) [Compound I-663]
2,< 100,CCCN1C[C@@H](NC(=O)Nc2c(C)c(-c3cnc(OC)nc3)nn2-c2ccccc2)[C@H](c2ccc(F)c(F)c2)O1 (racemic) [Compound I-676]
3,< 100,COCCN1C[C@@H](NC(=O)Nc2c(C)c(-c3cnc(N4C[C@H]5C[C@@H]4CO5)nc3)nn2-c2ccccc2)[C@H](c2ccnc(F)c2)O1 [Compound I-590]
4,< 100,CCN1CCC(Oc2nn(-c3ccccc3)c(NC(=O)N[C@@H]3CN(CCOC)O[C@H]3c3ccc(F)c(F)c3)c2C)CC1 [Compound I-604]
5,< 100,COCCN1C[C@@H](NC(=O)Nc2c(C)c(-c3ccnc(CCN(C)C)c3)nn2-c2ccccc2)[C@H](c2ccc(F)c(F)c2)O1 [Compound I-643]
6,< 100,Cc1c(-c2ccncc2)nn(-c2ccccc2)c1NC(=O)N[C@@H]1CN(CC(F)F)O[C@H]1c1ccc(F)c(F)c1 (racemic) [Compound I-630]

# Same assay, conditions: human TrkA 1 nmol/L, ATP 500 μmol/L, 120 min at 37° C.; read-out: IC50 values (TrkA phosphorylation inhibition)
row,IC50 [nM],Structure (SMILES)
1,3.2,COCCN1C[C@@H](NC(=O)Nc2c(C)c(-c3cnc4ncn(CC(F)(F)F)c4c3)nn2-c2ccccc2)[C@H](c2ccnc(F)c2)O1 (racemic) [Compound I-241]
2,3,COCCN1C[C@@H](NC(=O)Nc2c(C)c(-c3cnn(C)c3)nn2-c2ccccc2)[C@H](c2cnc(F)c(F)c2)O1 [Compound I-245]
3,2,COCCN1C[C@@H](NC(=O)Nc2c(C)c(-c3ccc4nc(C(N)=O)cn4c3)nn2-c2ccccc2)[C@H](c2cnc(F)c(F)c2)O1 (racemic) [Compound I-309]
4,6.8,COCCN1C[C@@H](NC(=O)Nc2c(C)c(-c3cnc(OCF)nc3)nn2-c2ccccc2)[C@H](c2ccnc(F)c2)O1 (racemic) [Compound I-620]
5,120,CCN1C[C@@H](NC(=O)Nc2c(C)c(-c3cnn(C)c3)nn2-c2ccccc2)[C@H](c2ccccc2)O1 (racemic) [Compound I-3]
